Data reported in patent publication US9834534B2, “Neuraminidase inhibitor compounds, compositions and methods for the use thereof in anti-viral treatments” (THE UNIVERSITY OF BRITISH COLUMBIA, priority 2009, dated 2017).
pIC50: −log10 of the molar value.

Columns and labels:
Auckland pH1N1 E119K = format: cell-based, influenza A virus; conditions: pH 1
Fukui H3N2 E119V = format: cell-based, influenza A virus
sH1N1/01 H274Y = format: cell-based, influenza A virus; conditions: read-out: IC50 sH1N/01 H274Y
B/Perth D197E = format: cell-based, influenza B virus; conditions: read-out: sensitivity to inhibitors, B/Perth D197E
Sol Isl sH1N1 E119A = format: cell-based, influenza A virus
[1] = test system: B/Florida E119D (B/Florida/4/2006 mutant 1 E117D); format: cell-based, influenza B virus
sH1N1/08 H274Y = format: cell-based, influenza A virus

Question: What does the source list for `CC(=O)NC1C(NC(=N)N)C(F)C(F)(C(=O)O)OC1[C@H](O)[C@H](O)CO` (stereo partly drawn) [4-G3Feq diF SA, 5-Acetamido-2,4,5-trideoxy-2α, 3β-difluoro-4-guanidino-α-D-erythro-L-gluco-nonulopyranosonate]?
Answer: pIC50 (Auckland pH1N1 E119K): […]; pIC50 (Fukui H3N2 E119V): 5.62; pIC50 (sH1N1/01 H274Y): 7.36; pIC50 (B/Perth D197E): 8.10

Question: With `CC(=O)N[C@@H]1C(NC(=N)N)C(F)[C@](F)(C(=O)O)OC1[C@H](O)[C@H](O)CO` (stereo partly drawn) [Compound 12, (2R,3R)-4-Guanyl-2,4-dideoxy-2,3-difluorosialic acid] as the compound, how does the pIC50 (Sol Isl sH1N1 E119A) read?
Answer: […]

Question: And the pIC50 (Fukui H3N2 E119V)?
Answer: 3.00

Question: What about the pIC50 (sH1N1/01 H274Y) of the same compound?
Answer: 6.66

Question: And the pIC50 (B/Perth D197E)?
Answer: 6.79

Question: With `CCOC(=O)C1=C[C@@H](OC(CC)CC)[C@H](NC(C)=O)[C@@H](N)C1` [Oseltamivir] as the compound, how does the pIC50 [1] read?
Answer: 5.92

Question: What about the pIC50 (Sol Isl sH1N1 E119A) of the same compound?
Answer: 6.38

Question: And the pIC50 (Auckland pH1N1 E119K)?
Answer: 6.83

Question: And the pIC50 (Fukui H3N2 E119V)?
Answer: 3.59

Question: What about the pIC50 (sH1N1/01 H274Y) of the same compound?
Answer: 5.61

Question: What about the pIC50 (sH1N1/08 H274Y) of the same compound?
Answer: 5.70

Question: Which results are given for `CC(=O)N[C@H]1[C@H]([C@H](O)[C@H](O)CO)OC(C(=O)O)=C[C@@H]1N=C(N)N` [Zanamivir, reference compound]?
Answer: pIC50 [1]: < 5.00; pIC50 (Sol Isl sH1N1 E119A): < 5.00; pIC50 (Auckland pH1N1 E119K): < 4.00; pIC50 (Fukui H3N2 E119V): 5.47; pIC50 (sH1N1/08 H274Y): 8.70; pIC50 (B/Perth D197E): 6.59
